Measurements taken from patent US6518278B1, “Carcinostatic substance for compatible administration, process of administrating same and process of rapidly inspecting same” (Debio Pharm S.A., priority 1994, dated 2003).
“Also recorded” adds a separate entry of the source.

How the values were obtained:
living cells [1] = conditions: dye bonded to the cell; inventor's earlier meeting article (1990); cited from earlier work
living cells [2] = assay: Fluorescence dye bonded to living cells: does the cell stay alive; type: cell-based
Description: As the said fluorescence dye, the above DAPI can be employed. Although the DAPI itself is known, the use for the observation of the cell division while keeping the cells alive is unknown. The present inventors have investigated such fluorescence dye as Hoechst 33258, acridine orange and acridine yellow other than the DAPI.

[3] = test system: human leutecyte strain cell (RPMI-8402); assay: Extinction effect of compatible administration of l-OHP and a compatible agent on tumor cells (compatible efficiency OE); type: cell-based; conditions: for Compatible Effects of l-OHP and Compatible Agent, Simultaneous Administration: both added day 1
Summary of the method: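 RPMI-8402 cells (10^6/ml, 15% fetal bovine serum) got l-OHP (5 or 1 μg/ml) with a partner agent at high or low dose (e.g. cisplatin 1 or 0.5, 5-FU 10 or 5 μg/ml; irinotecan fixed at 10 μg/ml) on the same day or staggered days 1–4 in either order. Cell kill was corrected for the untreated control. A combination index of 85–115% was scored additive, >115% synergistic.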

[4] = test system: K 562 parent cells (human bone marrow leukemia); assay: Extinction rate, OR 36-3 and cisplatin, K 562 parent cells; type: cell-based; conditions: 2 μg/ml of the cisplatin, single
Description: (§1) The extinction rates were measured in accordance with the same procedures of Example 2 except that K 562 parent cells (human bone marrow leukemia) and its cisplatin resistance cells (K652/CDDP) were employed in place of the human leutecyte strain cell employed in Comparative Example 1 and Example 2, and cisplatin was employed in place of the vincristin.

[5] = test system: cisplatin resistance cells (K652/CDDP); assay: Extinction rate, OR 36-3 and cisplatin, cisplatin resistance cells; type: cell-based, human; conditions: 5 μg/ml of the cisplatin, single; resistance cells versus K 562 parent cells
Description: as §1

[6] = larger dosage of compatible agent (μg/ml: cisplatin 1, 5-FU 10, irinotecane 10, adriamycin 0.05, vincristin 0.05, vindecin 0.05, etoposide 1, bleomycin 10, mitoxantrone 0.1, mitomycine 1), l-OHP 1 μg/ml (5 μg/ml with irinotecane) added day 1
[7] = larger dosage of compatible agent added day 1 (μg/ml: cisplatin 1, 5-FU 10, irinotecane 10, adriamycin 0.05, vincristin 0.05, vindecin 0.05, etoposide 1, bleomycin 10, mitoxantrone 0.1, mitomycine 1), l-OHP 1 μg/ml (5 μg/ml with irinotecane)
[8] = smaller dosage of compatible agent (μg/ml: cisplatin 0.5, 5-FU 5, irinotecane 10, adriamycin 0.01, vincristin 0.01, vindecin 0.01, etoposide 0.5, bleomycin 1, mitoxantrone 0.05, mitomycine 0.5), l-OHP 1 μg/ml added day 1
[9] = smaller dosage of compatible agent added day 1 (μg/ml: cisplatin 0.5, 5-FU 5, irinotecane 10, adriamycin 0.01, vincristin 0.01, vindecin 0.01, etoposide 0.5, bleomycin 1, mitoxantrone 0.05, mitomycine 0.5), l-OHP 1 μg/ml

Cl.Cl.N=C(N)c1ccc(-c2cc3ccc(C(=N)N)cc3[nH]2)cc1 [DAPI, 4′,6-diamidino-2-phenylindole•2HCl]
effect of fluorescence dye on living cells (living cells [1]): without extinguishing the cells

CN(C)c1ccc2cc3ccc(N(C)C)cc3nc2c1 [acridine orange]
toxicity of fluorescence dye to the cell (living cells [2]): toxicity is too strong to keep the cell alive

Cc1cc2cc3cc(C)c(N)cc3nc2cc1N [acridine yellow]
toxicity of fluorescence dye to the cell (living cells [2]): toxicity is too strong to keep the cell alive

N.N.[Cl][Pt][Cl] [cisplatin]
compatible administration effect with l-OHP, summary in words ([3]; compatible administration with l-OHP): the additive effect or the synergistic effect regardless of the administration method and the dosage in almost all the cases; also recorded: synergistic effects can be obtained in all the cases when the cisplatin and the l-OHP are simultaneously administrated and the l-OHP is administrated before the cisplatin; also recorded: effect about twice the expected value is obtained in most cases when the l-OHP administration is preceded and the cisplatin is added later
Compatible Effects of l-OHP and Compatible Agent, Time Lag Administration, Addition Administration of Compatible Agent day 2 [3, 6]: • (•: Synergistic Effect)
Compatible Effects of l-OHP and Compatible Agent, Time Lag Administration, Addition Administration of Compatible Agent day 3 [3, 6]: • (•: Synergistic Effect)
Compatible Effects of l-OHP and Compatible Agent, Time Lag Administration, Addition Administration of Compatible Agent day 4 [3, 6]: • (•: Synergistic Effect)
Compatible Effects of l-OHP and Compatible Agent, Simultaneous Administration ([3]; larger dosage of compatible agent (μg/ml: cisplatin 1, 5-FU 10, irinotecane 10, adriamycin 0.05, vincristin 0.05, vindecin 0.05, etoposide 1, bleomycin 10, mitoxantrone 0.1, mitomycine 1), l-OHP 1 μg/ml (5 μg/ml with irinotecane)): • (•: Synergistic Effect)
Compatible Effects of l-OHP and Compatible Agent, Time Lag Administration, Addition Administration of l-OHP day 2 [3, 7]: • (•: Synergistic Effect)
Compatible Effects of l-OHP and Compatible Agent, Time Lag Administration, Addition Administration of l-OHP day 3 [3, 7]: ◯ (◯: Additive Effect)
Compatible Effects of l-OHP and Compatible Agent, Time Lag Administration, Addition Administration of l-OHP day 4 [3, 7]: ◯ (◯: Additive Effect)
Compatible Effects of l-OHP and Compatible Agent, Time Lag Administration, Addition Administration of Compatible Agent day 2 [3, 8]: • (•: Synergistic Effect)
Compatible Effects of l-OHP and Compatible Agent, Time Lag Administration, Addition Administration of Compatible Agent day 3 [3, 8]: • (•: Synergistic Effect)
Compatible Effects of l-OHP and Compatible Agent, Time Lag Administration, Addition Administration of Compatible Agent day 4 [3, 8]: • (•: Synergistic Effect)
Compatible Effects of l-OHP and Compatible Agent, Simultaneous Administration ([3]; smaller dosage of compatible agent (μg/ml: cisplatin 0.5, 5-FU 5, irinotecane 10, adriamycin 0.01, vincristin 0.01, vindecin 0.01, etoposide 0.5, bleomycin 1, mitoxantrone 0.05, mitomycine 0.5), l-OHP 1 μg/ml): ◯ (◯: Additive Effect)
Compatible Effects of l-OHP and Compatible Agent, Time Lag Administration, Addition Administration of l-OHP day 2 [3, 9]: Δ (Δ: Below Additive Effect)
Compatible Effects of l-OHP and Compatible Agent, Time Lag Administration, Addition Administration of l-OHP day 3 [3, 9]: Δ (Δ: Below Additive Effect)
Compatible Effects of l-OHP and Compatible Agent, Time Lag Administration, Addition Administration of l-OHP day 4 [3, 9]: Δ (Δ: Below Additive Effect)
extinction rate of the parent cells relative to that of the resistance cells [4]: about twice
extinction rates against the parent cells and the resistance cells compared [5]: substantially the same as each other
